These results are taken from patent US20240366616A1, “SOLUBLE PHARMACEUTICAL COMPOSITIONS COMPRISING SALTS OF DISUBSTITUTED 1, 2, 4-TRIAZINE COMPOUND” (Mineralys Therapeutics, Inc., priority 2021, published 2024).

Type in all cases: physicochemical
A short description of series [1]: Powder x-ray diffraction of ALDSI stored with a metal salt (croscarmellose Na). To be noted: 3 days storage with croscarmellose Na, 60° C./75% RH. The method, then:
FIG. 1: Powder x-ray diffraction peaks detected from MLS-101 after 3 days of storage with a metal salt (croscarmellose Na) (storage conditions: 60° C./75% RH).
ALDSI-derived peaks were detected after 3 days of storage of ALDSI with a metal salt (croscarmellose Na). (storage conditions: 60° C./75% RH)

Series [2] is described as follows: Stability test of 10% API capsules: purity test (related substances). To be noted: Initial. The protocol:
Metal salt-free excipients were selected.
D-Mannitol and talc were mixed and sieved. The API was added to the sieved mixture, blended, sieved, and filled in HPMC capsules.

A short description of series [3]: Study II of tablets: purity test (related substances) after storage. As to conditions: Initial. An excerpt:
API granules, a disintegrant, and lubricants were mixed in a polyethylene bag. After confirming pressure dependency, the mixture was subjected to sequential tableting (900 kilogram of force, i.e. about 8826 Newtons).

Series [4] in a line: Dissolution test of ALDSI (JP Paddle Method, JP Second Fluid) and XRPD after storage or processing of API alone. The method, then:
Storage conditions: 25° C./60% RH, 40° C./75% RH, and 60° C./75% RH (relative humidity) in an open container
Sampling time points: 3 days and 1 week
Test method: JP Apparatus for Paddle Method (Apparatus 2)
Revolutions: 50 rpm for 0-30 min, and 250 rpm for 30 min.
Dissolution medium: JP Second Fluid for dissolution test (A mixture of phosphate buffer solution (pH 6.8) and water (1:1), as described in the Japanese Pharmacopoeia.)

Series [5] can be described thus: Water solubility of API free base.

As for `CC(=O)N[C@H]1CC[C@H](NC(=O)CN2CCN(c3nncc(-c4ccc(C)cc4)n3)CC2)CC1` [ALDSI], in series [1], the “Propensity toward disproportionation in the presence of a metal salt” value is on record as “high propensity toward disproportionation”. Further, in series [2], the “Individual related substances RRT 0.95” value is 0.10%, the “Individual related substances RRT 0.96” value was determined as 0.04%, the “Individual related substances RRT 0.98” value is 0.11% and the “Individual related substances RRT 1.18” value is 0.47%. In addition, in series [2], the “Individual related substances RRT 1.19” value is listed as 0.03% and the Total related substances amounted to 0.75%. Also, in series [3], the “Individual related substances RRT 0.81” value was determined as 0.11%, the “Individual related substances RRT 0.85” value was found to be 0.02%, the “Individual related substances RRT 1.09” value stood at 0.02% and the “Individual related substances RRT 1.13” value is on record as 0.02%. In series [3], the “Individual related substances RRT 1.35” value stood at 0.02%, the “Individual related substances RRT 1.43” value amounted to 0.02%, the “Individual related substances RRT 1.69” value came to 0.02% and the Total related substances worked out at 0.23%. In series [4] (API alone compressed at 300, 600, and 900 kilograms of force), the “Dissolution differences among samples” value is reported as “no differences in dissolution among samples”. The “Dissolution differences among samples” value in series [4] (API alone ground for 1, 3, 20, and 30 min) is “no differences in dissolution among samples”. The “Dissolution differences among samples” value in series [4] (API alone kneaded with large, middle, and small amounts of water) is on record as “no differences in dissolution among samples”. In addition, in series [4] (API alone, 25° C./60% RH, 40° C./75% RH, 60° C./75% RH open container, 3 days and 1 week), the “Dissolution delay / new XRPD peaks after storage” value is listed as “no delay of dissolution or appearance of new peaks on XRPD”. Besides, the “Dissolution changes over time” value in series [4] (compressed API alone stored at 60° C./75% RH for 3 days or 1 week) is given as “no changes in dissolution over time”. Moreover, in series [4] (ground API alone stored at 60° C./75% RH for 3 days or 1 week), the “Dissolution changes over time” value is reported as “no changes in dissolution over time”.

As to `CC(=O)N[C@H]1CC[C@H](NC(=O)CN2CCN(c3nncc(-c4ccc(C)cc4)n3)CC2)CC1` [API free base], the Solubility in water result in series [5] is reported as “poorly soluble in water”.
